# Measurements taken from ChEMBL document CHEMBL5380782, “Design, Biological Evaluation, and Computer-Aided Analysis of Dihydrothiazepines as Selective Antichlamydial Agents” (J Med Chem, 2023).
# Key:
# [1] = Stability of compound in simulated intestinal fluid assessed as compound remaining at 2 mg/ml measured after 24 hrs by HPLC analysis; assay type: ADME; conditions: read-out: Stability
# [2] = Cytotoxicity against HEK293 cells assessed as cell survival at 256 ug/ml incubated for 20 hrs by XTT assay relative to control; assay type: toxicity, cell-based; conditions: human, at 256 µg/mL, read-out: Survival
# [3] = Mutagenicity in Salmonella typhimurium TA98 assessed as mutagenic index ratio at 5000 ug pretreated for 90 mins measured after 66 hrs by AMES test; assay type: toxicity, Salmonella enterica subsp. enterica serovar Typhimurium; conditions: in vivo, 67.5 h, dose 5000 µg
# [4] = Mutagenicity in Salmonella typhimurium TA98 assessed as number of revertants per plate at 50 ug pretreated for 90 mins measured after 66 hrs in presence of S9 fraction by AMES test (reference value: 24.33 +/- 9.50); assay type: toxicity, subcellular, Salmonella enterica subsp. enterica serovar Typhimurium; conditions: s9, 67.5 h, dose 50 µg
# Chlamydia trachomatis [5] = test: Antibacterial activity against Chlamydia trachomatis L2 infected in HEp-2 cells assessed as reduction in number of chlamydial inclusion at 3.12 ug/ml incubated for 24 hrs by fluorescence microscopy relative to control; assay type: functional; parameters: scale not given: the % may be the effect or the level left; conditions: dose 3.12 µg/ml
# Chlamydia trachomatis [6] = test: Antibacterial activity against Chlamydia trachomatis L2 infected in HEp-2 cells assessed as reduction in number of chlamydial inclusion incubated for 24 hrs by fluorescence microscopy; assay type: functional, organism-based; conditions: dose 1.56-12.5 µg/ml
# Acinetobacter baumannii = test: Antimicrobial activity against Acinetobacter baumannii 2208 assessed as microbial growth inhibition incubated for 24 hrs by TTC staining based assay; assay type: functional
# [7] = Mutagenicity in Salmonella typhimurium TA100 assessed as number of revertants per plate at 150 ug pretreated for 90 mins measured after 66 hrs by AMES test (reference value: 206 +/- 7.07); assay type: toxicity, Salmonella enterica subsp. enterica serovar Typhimurium; conditions: in vivo, 67.5 h, dose 150 µg
# [8] = Mutagenicity in Salmonella typhimurium TA100 assessed as mutagenic index ratio at 5000 ug pretreated for 90 mins measured after 66 hrs in presence of S9 by AMES test; assay type: toxicity, Salmonella enterica subsp. enterica serovar Typhimurium; conditions: in vivo, 67.5 h, dose 5000 µg
# [9] = Mutagenicity in Salmonella typhimurium TA98 assessed as mutagenic index ratio at 50 ug pretreated for 90 mins measured after 66 hrs in presence of S9 fraction by AMES test; assay type: toxicity, subcellular, Salmonella enterica subsp. enterica serovar Typhimurium; conditions: s9, 67.5 h, dose 50 µg
# [10] = Mutagenicity in Salmonella typhimurium TA98 assessed as number of revertants per plate at 500 ug pretreated for 90 mins measured after 66 hrs by AMES test (reference value: 25.67 +/- 5.51); assay type: toxicity, Salmonella enterica subsp. enterica serovar Typhimurium; conditions: in vivo, 67.5 h, dose 500 µg
# Chlamydia trachomatis [11] = test: Inhibition of recombinant Chlamydia trachomatis ClpX ATPase activity assessed as reduction in ATP consumption at 25 ug/ml incubated for 60 mins by Kinase Glo assay relative to control; conditions: dose 25.0 µg/ml
# [12] = Mutagenicity in Salmonella typhimurium TA100 assessed as mutagenic index ratio at 500 ug pretreated for 90 mins measured after 66 hrs by AMES test; assay type: toxicity, Salmonella enterica subsp. enterica serovar Typhimurium; conditions: in vivo, 67.5 h, dose 500 µg
# [13] = Mutagenicity in Salmonella typhimurium TA98 assessed as mutagenic index ratio at 50 ug pretreated for 90 mins measured after 66 hrs by AMES test; assay type: toxicity, Salmonella enterica subsp. enterica serovar Typhimurium; conditions: in vivo, 67.5 h, dose 50 µg
# [14] = Mutagenicity in Salmonella typhimurium TA100 assessed as mutagenic index ratio at 150 ug pretreated for 90 mins measured after 66 hrs in presence of S9 by AMES test; assay type: toxicity, Salmonella enterica subsp. enterica serovar Typhimurium; conditions: in vivo, 67.5 h, dose 150 µg
# Chlamydia trachomatis [15] = test: Antibacterial activity against Chlamydia trachomatis serovar L2 infected in HEp-2 cells assessed as bacterial growth inhibition incubated for 16 hrs by IFA assay; assay type: functional, organism-based; conditions: serovar L2, HEp-2, 16 h
# [16] = tested on: Lacticaseibacillus rhamnosus; test: Antimicrobial activity against Lactobacillus rhamnosus CGMCC 1.3724 assessed as microbial growth inhibition incubated for 24 hrs by TTC staining based assay; assay type: functional
# [17] = Mutagenicity in Salmonella typhimurium TA100 assessed as mutagenic index ratio at 5000 ug pretreated for 90 mins measured after 66 hrs by AMES test; assay type: toxicity, Salmonella enterica subsp. enterica serovar Typhimurium; conditions: in vivo, 67.5 h, dose 5000 µg
# [18] = Mutagenicity in Salmonella typhimurium TA98 assessed as number of revertants per plate at 150 ug pretreated for 90 mins measured after 66 hrs by AMES test (reference value: 25.67 +/- 5.51); assay type: toxicity, Salmonella enterica subsp. enterica serovar Typhimurium; conditions: in vivo, 67.5 h, dose 150 µg
# [19] = Mutagenicity in Salmonella typhimurium TA100 assessed as number of revertants per plate at 5000 ug pretreated for 90 mins measured after 66 hrs in presence of S9 by AMES test (reference value: 201 +/- 9.90); assay type: toxicity, Salmonella enterica subsp. enterica serovar Typhimurium; conditions: in vivo, 67.5 h, dose 5000 µg
# Candida albicans = test: Antimicrobial activity against Candida albicans 90028 assessed as microbial growth inhibition by broth microdilution method; assay type: functional
# [20] = Mutagenicity in Salmonella typhimurium TA100 assessed as number of revertants per plate at 50 ug pretreated for 90 mins measured after 66 hrs in presence of S9 by AMES test (reference value: 201 +/- 9.90); assay type: toxicity, Salmonella enterica subsp. enterica serovar Typhimurium; conditions: in vivo, 67.5 h, dose 50 µg
# [21] = Mutagenicity in Salmonella typhimurium TA98 assessed as mutagenic index ratio at 1500 ug pretreated for 90 mins measured after 66 hrs by AMES test; assay type: toxicity, Salmonella enterica subsp. enterica serovar Typhimurium; conditions: in vivo, 67.5 h, dose 1500 µg
# [22] = Stability of compound in simulated gastric fluid assessed as compound remaining at 2 mg/ml measured after 24 hrs by HPLC analysis; assay type: ADME; conditions: read-out: Stability
# [23] = Mutagenicity in Salmonella typhimurium TA100 assessed as number of revertants per plate at 150 ug pretreated for 90 mins measured after 66 hrs in presence of S9 by AMES test (reference value: 201 +/- 9.90); assay type: toxicity, Salmonella enterica subsp. enterica serovar Typhimurium; conditions: in vivo, 67.5 h, dose 150 µg
# [24] = Mutagenicity in Salmonella typhimurium TA98 assessed as number of revertants per plate at 500 ug pretreated for 90 mins measured after 66 hrs in presence of S9 fraction by AMES test (reference value: 24.33 +/- 9.50); assay type: toxicity, subcellular, Salmonella enterica subsp. enterica serovar Typhimurium; conditions: s9, 67.5 h, dose 500 µg
# [25] = Mutagenicity in Salmonella typhimurium TA98 assessed as mutagenic index ratio at 150 ug pretreated for 90 mins measured after 66 hrs by AMES test; assay type: toxicity, Salmonella enterica subsp. enterica serovar Typhimurium; conditions: in vivo, 67.5 h, dose 150 µg
# [26] = Mutagenicity in Salmonella typhimurium TA100 assessed as number of revertants per plate at 1500 ug pretreated for 90 mins measured after 66 hrs in presence of S9 by AMES test (reference value: 201 +/- 9.90); assay type: toxicity, Salmonella enterica subsp. enterica serovar Typhimurium; conditions: in vivo, 67.5 h, dose 1500 µg
# [27] = tested on: Bacteroides thetaiotaomicron; test: Antimicrobial activity against Bacteroides thetaiotaomicron DSM 2079 assessed as microbial growth inhibition incubated for 48 hrs; assay type: functional
# [28] = Mutagenicity in Salmonella typhimurium TA100 assessed as mutagenic index ratio at 50 ug pretreated for 90 mins measured after 66 hrs in presence of S9 by AMES test; assay type: toxicity, Salmonella enterica subsp. enterica serovar Typhimurium; conditions: in vivo, 67.5 h, dose 50 µg
# [29] = Mutagenicity in Salmonella typhimurium TA100 assessed as number of revertants per plate at 50 ug pretreated for 90 mins measured after 66 hrs by AMES test (reference value: 206 +/- 7.07); assay type: toxicity, Salmonella enterica subsp. enterica serovar Typhimurium; conditions: in vivo, 67.5 h, dose 50 µg
# [30] = tested on: Lactiplantibacillus plantarum; test: Antimicrobial activity against Lactobacillus plantarum DSM 20174 assessed as microbial growth inhibition incubated for 24 hrs; assay type: functional
# [31] = Mutagenicity in Salmonella typhimurium TA98 assessed as mutagenic index ratio at 500 ug pretreated for 90 mins measured after 66 hrs in presence of S9 fraction by AMES test; assay type: toxicity, subcellular, Salmonella enterica subsp. enterica serovar Typhimurium; conditions: s9, 67.5 h, dose 500 µg
# Thomasclavelia ramosa = test: Antimicrobial activity against Clostridium ramosum DSM 1402 assessed as microbial growth inhibition incubated for 48 hrs; assay type: functional
structure (smiles),measurement,setting,value
N#Cc1ccccc1C1Sc2ccccc2NC2=C1C(=O)c1ccccc12 (stereo not given),"remaining at 24 h, 2 mg/ml",[1],85%
same,"viability at 20 h, 256 ug/ml",[2],≥ 75%
same,Ratio,[3],1.46
same,Activity,[4],32
same,Activity,Chlamydia trachomatis [5],<60%
same,Activity,Chlamydia trachomatis [6],Dose-Dependent Effect
same,MIC,Acinetobacter baumannii,> 125 µg/mL
same,Activity,[7],187.5
same,Ratio,[8],1.12
same,Ratio,[9],1.31
same,Activity,[10],38
same,inhibition,Chlamydia trachomatis [11],20%
same,Ratio,[12],1.13
same,Ratio,[13],1.01
same,Ratio,[14],0.93
same,IC50,Chlamydia trachomatis [15]; read-out: IC50,1.61 µg/mL
same,IC50,Chlamydia trachomatis [15]; read-out: pIC50 (converted),4.37 µM
same,MIC,[16],> 125 µg/mL
same,Ratio,[17],1.16
same,Activity,[18],34.5
same,Activity,[19],227
same,MIC,Candida albicans,> 1000 µg/mL
same,Activity,[20],185
same,Ratio,[21],1.51
same,"remaining at 24 h, 2 mg/ml",[22],70%
same,Activity,[23],187
same,Activity,[24],43.5
same,Ratio,[25],1.34
same,Activity,[26],198.5
same,MIC,[27],> 125 µg/mL
same,Ratio,[28],0.92
same,Activity,[29],190.5
same,MIC,[30],> 125 µg/mL
same,Ratio,[31],1.78
same,MIC,Thomasclavelia ramosa,> 125 µg/mL
